In US6977254B2, “Hydroxy cyclohexenyl phenyl carboxamides tocolytic oxytocin receptor antagonists” (Wyeth, priority 2001, dated 2005):

Assays:
human oxytocin receptor = molecular target: T1, human oxytocin receptor (Homo sapiens, UniProt P30559); assay: Oxytocin binding in CHO cell membranes expressing human oxytocin receptors ([3H]oxytocin radioligand); details: for IC50: value in parentheses, read-out: OT (IC50); for inhibition at 0.1 µM / OT % inhibition @ 100 nM: 100 nM, value without parentheses; for inhibition at 0.1 µM: read-out: OT % inhibition @ 100 nM
T1 construct: host or cells: CHO cells, stably transfected (pcDNA3.1 vector); membranes
T1 sequence (P30559 1-389): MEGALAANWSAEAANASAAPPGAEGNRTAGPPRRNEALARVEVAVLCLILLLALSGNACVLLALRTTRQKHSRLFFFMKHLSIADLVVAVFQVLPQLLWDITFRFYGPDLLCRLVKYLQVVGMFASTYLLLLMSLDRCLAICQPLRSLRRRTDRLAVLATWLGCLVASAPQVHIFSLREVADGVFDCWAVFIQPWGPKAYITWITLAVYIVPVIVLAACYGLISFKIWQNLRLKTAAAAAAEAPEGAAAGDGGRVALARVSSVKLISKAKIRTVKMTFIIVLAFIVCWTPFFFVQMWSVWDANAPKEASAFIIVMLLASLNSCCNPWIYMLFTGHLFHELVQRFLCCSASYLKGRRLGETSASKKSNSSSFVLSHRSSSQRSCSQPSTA
Excerpt: Oxytocin binding in Chinese Hamster Ovary cell membranes expressing human oxytocin receptors
Chinese Hamster Ovary (CHO) cells stably transfected with the human oxytocin (cf. T. Kimura et al., U.S. Pat. No. 5,466,584 (1995) to Rohto Pharmaceutical Co. Ltd., Osaka, Japan) were obtained from Dr. M. Thibonnier, Case Western Reserve University School of Medicine, Cleveland, Ohio.
A. Passaging and Amplification of Cells:
CHO cells transfected with the human oxytocin receptors obtained from M. Thibonnier (pcDNA3.1 vector) are allowed to grow to confluency (approx. >90%) in T-150 flasks under sterile conditions, in a cell culture medium of F-12 Nutrient Mixture (HAM) with L-glutamine (Gibco Cat. #11765-054) containing 15 mM HEPES (Gibco Cat. #15630-080), 1% antibiotic/antimycotic (add 5 mL 100×, Gibco Cat. #15240-062 per 500 mL F-12), 400 μg/mL of Geneticin (add 4 mL of 50 mg/mL per 500 mL F-12) and 10% Fetal Bovine Serum (Qualified, heat inactivated, Gibco Cat. #16140-063). The medium is removed by aspiration and the cells are washed with 10 mL of Hank's Balanced Salt solution (Gibco Cat. #14175-095). The salt solution is removed by aspiration and the cells trypsinized with 5 mL of trypsin-EDTA (0.05% trypsin, 0.53 mM EDTA-4Na, Gibco Cat. #25300-070) for 1 min The trypsin is removed by aspiration and the cells dislodged by tapping. Cell Culture medium (e.g. 30 mL for 1:30 split) is immediately added and mixed well to inactivate trypsin. 1 mL of detached cells is added to new culture flasks containing fresh Cell Culture medium (e.g. into 25 mL per T-150 flask), and mixed gently. The cells are incubated at 37° C. in 5% CO2. The medium is changed at 3 to 4 days interval (or as appropriate). The cells grow to confluency (approx. >75%-95%) within 7-8 days. All steps are done under sterile conditions.
The cells are washed twice gently with Hank's Balanced Salt solution (eg, use 10 mL per T-150 flask). The excess is removed and the cells bathed for 15-30 min. in an enzyme-free Cell Dissociation Buffer (eg, use 8 mL Hank's Based, Gibco Cat. #13150-016 per T-150 flask) until cells are loosened. The contents are transferred to centrifuge tubes (50 mL size) kept in ice bath. All subsequent steps are done at 4° C. The tubes are centrifuged at 300×g for 15 min (1380 rpm on SORVAL, Model RT6000D, using rotor for 50 mL tubes). The supernatant is discarded and the cells suspended in homogenizing buffer (10 mM Tris-HCl containing 0.25 M sucrose and 1 mM EDTA, pH 7.4) ensuring that the volume of the buffer is about ten times the volume of the cell pellet. The cells are pooled into a centrifuge tube (50 mL) and homogenized with Polytron at setting 6 for 10 sec. The homogenate is transferred into a Potter-Elvjehm homogenizer and homogenized with 3 strokes. The homogenate is centrifuged at 1500×g for 10 min at 4° C. (3100 rpm using SORVAL, model RT6000D, using rotor for 50 mL tubes). The pellet is discarded. The supernatant is centrifuged at 100,000×g for 60 min. at 4° C. (Beckman L8-80M ultracentrifuge; spin at 37,500 rpm with rotor type 70 Ti for 50 mL tubes; 38,000 rpm with type 80Ti for 15 mL tubes; or 35,800 rpm with rotor type 45Ti). The supernantant is discarded and the pellet suspended in 3 to 4 mL of Tris buffer (50 mM TRIS-HCl, pH 7.4). The protein content is estimated by the Bradford or Lowry method. The volume of the membrane suspension is adjusted with the membrane buffer (50 mM Tris-HCl containing 0.1% BSA and 0.1 mM PMSF) to give 3.0 mg/mL (or as appropriate) of protein. The membranes are aliquoted and stored at −70° C.
C. Radioligand Binding Assay:
In wells of a 96-well format microtiter plate, is added 90, 110 or 130 μL (to make up a final volume of 200 μL) of assay buffer containing 50 mM of Tris-HCl (pH 7.4), […], 1 mg % aprotinin, 1 mg % leupeptin, 2 mg % 1,10-phenanthroline, 10 mg % trypsin inhibitor, and 0.1 mM PMSF. The inhibitors are added on the day of the experiment. […]

| IC50 (human oxytocin receptor) [nM] | inhibition at 0.1 µM (human oxytocin receptor) [%] | also measured | SMILES |
| --- | --- | --- | --- |
| 0.98 | – | melting point: 72 to 73 °C | COc1cc(C2=CCCCC2)c(Cl)cc1C(=O)N1Cc2ccc(C(=O)N(C)C[C@H](O)[C@@H](O)[C@H](O)[C@H](O)CO)n2Cc2ccccc21 [Example 1, 1-[[[10-[5-Chloro-4-(1-cyclohex-1-en-1-yl)-2-methoxybenzoyl]-10,11-dihydro-5H-pyrrolo[2,1-c][1,4]benzodiazepin-3-yl]carbonyl]methylamino]-1-deoxy-D-glucitol] |
| – | 21 | – | COc1cc(C2=CCCCC2)c(Cl)cc1C(=O)N1Cc2ccc(C(=O)O)n2Cc2ccccc21 [Example 1G, 10-(5-Chloro-4-cyclohex-1-en-1-yl-2-methoxybenzoyl)-10,11-dihydro-5H-pyrrolo[2,1-c][1,4]benzodiazepine-3-carboxylic acid] |
| 19.6 | – | – | COC[C@@H](OC)[C@@H](OC)[C@H](OC)[C@H](CN(C)C(=O)c1ccc2n1Cc1ccccc1N(C(=O)c1cc(Cl)c(C3=CCCCC3)cc1OC)C2)OC [Example 2, 10-(5-Chloro-4-cyclohex-1-en-1-yl-2-methoxybenzoyl)-N-methyl-N-[(2S,3R,4R,5R)-2,3,4,5,6-pentamethoxyhexyl]-10,11-dihydro-5H-pyrrolo[2,1-c][1,4]benzodiazepine-3-carboxamide] |
| 4.92 | – | melting point: 163 to 176 °C | COc1cc(C2=CCCCC2)c(Cl)cc1C(=O)N1Cc2ccc(C(=O)N(C)C[C@@H]3OC(=O)O[C@H]3[C@H](O)[C@H]3COC(=O)O3)n2Cc2ccccc21 [Example 3, 10-(5-Chloro-4-cyclohex-1-en-1-yl-2-methoxybenzoyl)-N-[((4S,5S)-5-{(R)-hydroxy[(4R)-2-oxo-1,3-dioxolan-4-yl]methyl}-2-oxo-1,3-dioxolan-4-yl)methyl]-N-methyl-10,11-dihydro-5H-pyrrolo[2,1-c][1,4]benzodiazepine-3-carboxamide] |
| – | – | OT % inhibition @ 100 nM (human oxytocin receptor): 10% | Cc1cc(C(=O)N2Cc3ccc(C(=O)C(Cl)(Cl)Cl)n3Cc3ccccc32)ccc1C1=CCCCC1 [Example 5D, 2,2,2-Trichloro-1-[10-(4-cyclohex-1-en-1-yl-3-methyl-benzoyl)-10,11-dihydro-5H-pyrrolo[2,1-c][1,4]benzodiazepin-3-yl]-methanone] |
| – | 26 | – | Cc1cc(C(=O)N2Cc3ccc(C(=O)O)n3Cc3ccccc32)ccc1C1=CCCCC1 [Example 5E, 10-(4-Cyclohex-1-en-1-yl-3-methyl-benzoyl)-10,11-dihydro-5H-pyrrolo[2,1-c][1,4]benzodiazepine-3-carboxylic acid] |
| 2.15 | – | – | Cc1cc(C(=O)N2Cc3ccc(C(=O)N(C)C[C@H](O)[C@@H](O)[C@H](O)[C@H](O)CO)n3Cc3ccccc32)ccc1C1=CCCCC1 [Example 5] |
| – | 23 | – | CCOC(=O)[C@H](Cc1ccc(O)cc1)NC(=O)c1ccc2n1Cc1ccccc1N(C(=O)c1ccc(C3=CCCCC3)c(C)c1)C2 [Example 9, (2S)-2-{[10-(4-Cyclohex-1-en-1-yl-3-methyl-benzoyl)-10,11-dihydro-5H-pyrrolo[2,1-c][1,4]benzodiazepine-3-carbonyl]-amino}-3-(4-hydroxy-phenyl)-propionic acid ethyl ester] |
| – | – | OT % inhibition @ 100 nM (human oxytocin receptor): 54% | Cc1cc(C(=O)N2Cc3ccc(C(=O)N[C@@H](Cc4ccc(O)cc4)C(=O)O)n3Cc3ccccc32)ccc1C1=CCCCC1 [Example 10] |
| 76.2 | – | – | COC(=O)[C@H](CO)NC(=O)c1ccc2n1Cc1ccccc1N(C(=O)c1ccc(C3=CCCCC3)c(C)c1)C2 [Example 11, (2S)-2-{[10-(4-Cyclohex-1-en-1-yl-3-methyl-benzoyl)-10,11-dihydro-5H-pyrrolo[2,1-c][1,4]benzodiazepine-3-carbonyl]-amino}-3-hydroxy-propionic acid methyl ester] |
| 47.1 | – | – | COC(=O)[C@@H](CO)NC(=O)c1ccc2n1Cc1ccccc1N(C(=O)c1ccc(C3=CCCCC3)c(C)c1)C2 [Example 12, (2R)-2-{[10-(4-Cyclohex-1-en-1-yl-3-methyl-benzoyl)-10,11-dihydro-5H-pyrrolo[2,1-c][1,4]benzodiazepine-3-carbonyl]-amino}-3-hydroxy-propionic acid methyl ester] |
| – | 63 | – | Cc1cc(C(=O)N2Cc3ccc(C(=O)N[C@@H](CO)C(=O)O)n3Cc3ccccc32)ccc1C1=CCCCC1 [Example 13, (2S)-2-{[10-(4-Cyclohex-1-en-1-yl-3-methyl-benzoyl)-10,11-dihydro-5H-pyrrolo[2,1-c][1,4]benzodiazepine-3-carbonyl]-amino}-3-hydroxy-propionic acid] |
| – | 50 | – | Cc1cc(C(=O)N2Cc3ccc(C(=O)N[C@H](CO)C(=O)O)n3Cc3ccccc32)ccc1C1=CCCCC1 [Example 14, (2R)-2-{[10-(4-Cyclohex-1-en-1-yl-3-methyl-benzoyl)-10,11-dihydro-5H-pyrrolo[2,1-c][1,4]benzodiazepine-3-carbonyl]-amino}-3-hydroxy-propionic acid] |
| – | 19 | – | Cc1cc(C(=O)N2Cc3ccc(C(=O)O)n3Cc3ccccc32)ccc1C1=CCCc2ccccc21 [Example 15B, 10-[4-(3,4-Dihydro-naphthalen-1-yl)-3-methyl-benzoyl]-10,11-dihydro-5H-pyrrolo[2,1-c][1,4]benzodiazepine-3-carboxylic acid] |
| 3.19 | – | – | Cc1cc(C(=O)N2Cc3ccc(C(=O)N(C)C[C@H](O)[C@@H](O)[C@H](O)[C@H](O)CO)n3Cc3ccccc32)ccc1C1=CCCc2ccccc21 [Example 15] |
| – | – | OT % inhibition @ 100 nM (human oxytocin receptor): 98% | Cc1cc(C(=O)N2Cc3ccc(C(=O)N(CCO)CCO)n3Cc3ccccc32)ccc1C1=CCCc2ccccc21 [Example 16, {10-[4-(3,4-Dihydro-naphthalen-1-yl)-3-methyl-benzoyl]-10,11-dihydro-5H-pyrrolo[2,1-c][1,4]benzodiazepin-3-yl}-3-carboxylic acid bis-(2-hydroxy-ethyl)-amide] |
| – | – | OT % inhibition @ 100 nM (human oxytocin receptor): 88% | Cc1cc(C(=O)N2Cc3ccc(C(=O)N4CCN(CCO)CC4)n3Cc3ccccc32)ccc1C1=CCCCC1 [Example 17, {10-[4-(1-Cyclohex-1-en-1-yl)-3-methylbenzoyl]-10,11-dihydro-5H-pyrrolo[2,1-c][1,4]benzodiazepin-3-yl}[4-(2-hydroxyethyl)-1-piperazinyl]methanone] |
